This note sets out measurements from US20100324058A1 (Obschestvo S Organichennoi Otvetsttvennoctiyou "Bionika", priority 2007, published 2010).

For the assay, the target named is thrombin (Homo sapiens, UniProt P00734). The assay is described as follows: Effect of test compounds on thrombin activity: hydrolysis rate of chromogenic (Chromozim TH) or fluorogenic (BOC-Ala-Pro-Arg-AMC) substrate. In kind it is biochemical. To be noted: for inhibition at 0.0025 µM: concentration of compound 2.5 nM; for inhibition at 0.005 µM: concentration of compound 5 nM; for inhibition at 0.025 µM: concentration of compound 25 nM; for inhibition at 0.05 µM: concentration of compound 50 nM; for inhibition at 0.01 µM: concentration of compound 10 nM; for inhibition at 0.02 µM: concentration of compound 20 nM; for inhibition at 0.1 µM: concentration of compound 100 nM; for inhibition at 0.0125 µM: concentration of compound 12.5 nM; for inhibition at 0.125 µM: concentration of compound 125 nM; for inhibition at 0.00125 µM: concentration of compound 1.25 nM. The source says:
The effect of the synthesized substances on thrombin activity was studied by measuring the hydrolysis rate of specific low molecular weight substrates with thrombin in an aqueous buffering solution in the absence and presence of these compounds. One of these substrates was chromogenic substrate Chromozim TH (CTH): N-(p-Tosyl)-Gly-Pro-Arg-pNA [Sonder S A, Fenton J W 2nd. Thrombin Specificity with Tripeptide Chromogenic Substrates: Comparison of Human and Bovine Thrombins with and without Fibrinogen Clotting Activities. Clin. Chem., 1986, 32(6):934-937]. Another substrate that was used in a number of experiments was fluorogenic substrate BOC-Ala-Pro-Arg-AMC (S), wherein BOC is butoxycarbonyl residue, and AMC is 7-amino-4-methylcoumaryl [Kawabata S, Miura T, Morita T, Kato H, Fujikawa K, Ivanaga S, Takada K, Kimura T, Sakakibara S. Highly Sensitive peptide-4-methylcoumaryl-7-amide Substrates for Blood-Clotting Proteases and Trypsin. Eur. J. Biochem., 1988, 172(1):17-25].
The holes of a common 96-hole board were filled with a buffer containing 140 mM of NaCl, 20 mM of HEPES, and 0.1% polyethylene glycol (Mw=6,000), at pH=8.0. […] When a chromogenic substrate was used, accumulation of the colored reaction product—para-nitroaniline—was followed on a spectrophotometric Molecular Devices board reader (Thermomax, U.S.), measuring the increase in optical density on the 405 nm wavelength. […] The reaction kinetics was registered on a fluorometric Titertek Fluoroskan board reader (LabSystem, Finland).
The initial reaction rate was measured as the tangent of the kinetic curve inclination angle on a straight section (first 10 to 15 minutes of registration). Reaction rate without an inhibitor was a ssumed to be 100%. The mean arithmetic value of two independent measurements was used as the end result.

[1] abbreviates: concentration of compound 0.25 mcM.
Setting [2] is: concentration of compound 0.5 mcM.
Where [3] appears, read: concentration of compound 2.5 mcM.
Setting [4] is: concentration of compound 5 mcM.
Where [5] appears, read: concentration of compound 25 mcM.
The mark [6] stands for this setting: concentration of compound 50 mcM.
Where [7] appears, read: concentration of compound 250 mcM.
The mark [8] stands for this setting: concentration of compound 500 mcM.
The mark [9] stands for this setting: concentration of compound 10 mcM.
[10] abbreviates: concentration of compound 100 mcM.

`Cc1cc(OCC[n+]2ccsc2N)cc(OS(=O)(=O)c2ccccc2Cl)c1.[I-]` [HC_045s_IOC]: the “Hydrolysis rate inhibition, %” value worked out at 10% (concentration of compound 0.125 mcM); 18% under setting [1]; 42% under setting [2]; 66% (concentration of compound 1.25 mcM); 87% under setting [3].

Take `CNc1ccc(S(=O)(=O)N(C)c2ccccc2)cc1NC(=O)CC[n+]1ccc(N)cc1.[Cl-]` [HC_028s_IOC]: the “Hydrolysis rate inhibition, %” value (concentration of compound 0.1 mcM) is on record as 15%; the “Hydrolysis rate inhibition, %” value under setting [1] is listed as 34%; the “Hydrolysis rate inhibition, %” value under setting [2] came out at 46%; the “Hydrolysis rate inhibition, %” value (concentration of compound 1 mcM) was 44%; the “Hydrolysis rate inhibition, %” value under setting [3] turned out to be 63%; the “Hydrolysis rate inhibition, %” value under setting [4] worked out at 78%. In addition, the “Hydrolysis rate inhibition, %” value under setting [5] came to 95%; the “Hydrolysis rate inhibition, %” value under setting [6] was determined as 95%; the “Hydrolysis rate inhibition, %” value under setting [7] came to 100%; the “Hydrolysis rate inhibition, %” value under setting [8] was determined as 100%.

By inhibition is commonly meant the change of the read-out against control, counted positive when it falls. The compound `Cc1cc(OCC[n+]2ccc(N)cc2)cc(OS(=O)(=O)c2ccccc2F)c1` [HC_037s_IOC] came in with an inhibition at 0.0025 µM of 43%, an inhibition at 0.005 µM of 59%, an inhibition at 0.025 µM of 82% and an inhibition at 0.05 µM of 86%. Also, under setting [3], the “Hydrolysis rate inhibition, %” value is 89%.

The compound `C/N=C(/N)SCCOc1cc(C)cc(OS(=O)(=O)c2ccccc2Cl)c1.I` [HC_033s_IOC] came in with an inhibition at 0.01 µM of 23%, an inhibition at 0.02 µM of 24% and an inhibition at 0.1 µM of 59%. The same compound displayed an inhibition at 0.004 µM (concentration of compound 4 nM) of 18%. Moreover, 0.04 µM produced 62% inhibition (concentration of compound 40 nM). In addition, for the setting “concentration of compound 200 nM”, testing at 0.2 µM gave an inhibition of 74%. Moreover, the “Hydrolysis rate inhibition, %” value (concentration of compound 4 mcM) is reported as 100%.

Compound `Cc1cc(OCCCSC(=N)N)cc(OS(=O)(=O)c2ccccc2F)c1.I` [HC_031s_IOC] displayed an inhibition at 0.005 µM of 35%, an inhibition at 0.01 µM of 43%, an inhibition at 0.02 µM of 49% and an inhibition at 0.05 µM of 59%. This compound showed an inhibition at 0.1 µM of 73%. The “Hydrolysis rate inhibition, %” value (concentration of compound 2 mcM) was found to be 99%. Also, the “Hydrolysis rate inhibition, %” value under setting [4] was 100%.

In the case of `CN(c1ccccc1)S(=O)(=O)c1ccc2c(c1)nc(CC[n+]1ccc(N)cc1)n2C.[Cl-]` [HC_027s_IOC], the “Hydrolysis rate inhibition, %” value reads like this: under setting [1], 11%; under setting [2], 6%; under setting [3], 24%; under setting [4], 24%; under setting [9], 59%; under setting [5], 72%. The “Hydrolysis rate inhibition, %” value runs as follows: under setting [6], 88%; under setting [10], 100%; under setting [7], 100%; under setting [8], 100%.

`Cc1cc(OCC[n+]2ccc(N)nc2)cc(OS(=O)(=O)c2ccccc2)c1.[I-]` [HC_047s_IOC] returned an inhibition at 0.01 µM of 8%, an inhibition at 0.025 µM of 10% and an inhibition at 0.05 µM of 14%. Moreover, the “Hydrolysis rate inhibition, %” value under setting [1] is listed as 36%. In addition, the “Hydrolysis rate inhibition, %” value under setting [2] worked out at 49%. Where the note is “concentration of compound 1.85 mcM”, the “Hydrolysis rate inhibition, %” value came out at 84%. Besides, the “Hydrolysis rate inhibition, %” value under setting [3] came to 90%.

In turn, `Cc1cc(OCCCSC(=N)N)cc(OS(=O)(=O)c2ccccc2Cl)c1` [HC-026s-IOC, 3-(3-methyl-5-(2-chlorobenzenesulfonyloxy)phenoxy)propyl-isothiouronium iodide] returned an inhibition at 0.005 µM of 47%, an inhibition at 0.0125 µM of 40%, an inhibition at 0.025 µM of 64% and an inhibition at 0.125 µM of 68%.

`Cc1cc(OCCC[n+]2ccc(N)cc2)cc(OS(=O)(=O)c2ccccc2Cl)c1` [HC-023s-IOC, 4-AMINO-1-(3-(3-METHYL-5-(2-CHLOROBENZENE SULFONYLOXY)PHENOXY)PROPYL)-PYRIDINIUM IODIDE]: the “Hydrolysis rate inhibition, %” value is, setting by setting: (concentration of compound 0.7 mcM) 13%; (concentration of compound 1.4 mcM) 34%; (concentration of compound 3.4 mcM) 50%; (concentration of compound 34 mcM) 86%; (concentration of compound 68 mcM) 99%; under setting [7], 100%.

For `Cc1cc(OCCC[n+]2ccc(N)cc2)cc(OS(=O)(=O)c2ccccc2)c1` [HC-016s-IOC, 4-amino-1-(3-(3-methyl-5-(benzenesulfonyloxy)phenoxy)propyl)-pyridinium iodide], where the note is “concentration of compound 0.25 mM”, the inhibition at 250 µM stood at 84%. In addition, testing at 500 µM (concentration of compound 0.5 mM) gave an inhibition of 100%.

In turn, `Cc1cc(OCC[n+]2ccc(N)cc2)cc(OS(=O)(=O)c2ccccc2)c1` [HC-019s-IOC, 4-amino-1-(2-(3-methyl-5-(benzene Sulfonyloxy)phenoxy)ethyl)-pyridinium iodide] came in with an inhibition at 0.0025 µM of 55%, an inhibition at 0.005 µM of 88%, an inhibition at 0.0125 µM of 90% and an inhibition at 0.025 µM of 88%. The compound also returned an inhibition at 0.05 µM of 95% and an inhibition at 0.125 µM of 94%.

The compound `Cc1cc(OCCSC(=N)N)cc(OS(=O)(=O)c2ccccc2Cl)c1` [HC_046s_IOC] registered an inhibition at 0.00125 µM of 18%, an inhibition at 0.0025 µM of 39%, an inhibition at 0.005 µM of 59% and an inhibition at 0.0125 µM of 77%. The same compound came in with an inhibition at 0.025 µM of 92%.

Consider `CNc1ccc(S(=O)(=O)N(C)c2ccccc2)cc1NC(=O)CC[n+]1ccc(N(C)C)cc1.[Cl-]` [HC-022s-IOC], for which the “Hydrolysis rate inhibition, %” value reads like this: under setting [1], 21%; under setting [2], 18%; under setting [4], 27%; under setting [5], 34%; under setting [6], 40%; (concentration of compound 130 mcM) 36%. For the same compound, under setting [7], the “Hydrolysis rate inhibition, %” value was determined as 51%.

Regarding `Cc1ccc(S(=O)(=O)Oc2cc(C)cc(OCC[n+]3ccc(N)cc3)c2)cc1` [HC_038s_IOC], testing at 0.005 µM gave an inhibition of 47%, the inhibition at 0.025 µM turned out to be 56% and at 0.05 µM the inhibition was 85%. In addition, the “Hydrolysis rate inhibition, %” value under setting [3] amounted to 96%.

In turn, `Cc1cc(OCC[n+]2ccc(N)cc2)cc(OS(=O)(=O)c2ccccc2Cl)c1` [HC-025s-IOC, 4-amino-1-(2-(3-methyl-5-(2-chlorobenzenesulfonyloxy)phenoxy)ethyl)-pyridinium iodide] displayed an inhibition at 0.00125 µM of 69%, an inhibition at 0.0025 µM of 52%, an inhibition at 0.0125 µM of 81% and an inhibition at 0.05 µM of 96%. The compound also registered an inhibition at 0.125 µM of 98%. The compound also returned an inhibition at 0.0063 µM (concentration of compound 6.3 nM) of 70%.

Take `C/N=C(/N)SCCCOc1cc(C)cc(OS(=O)(=O)c2ccccc2Cl)c1.I` [HC_032s_IOC]: the inhibition at 0.05 µM is 10% and the inhibition at 0.1 µM came out at 17%. Further, under setting [4], the “Hydrolysis rate inhibition, %” value worked out at 48%. Moreover, the “Hydrolysis rate inhibition, %” value under setting [9] stood at 71%.

`Cc1cc(OCC[n+]2ccc(N)cc2)cc(OS(=O)(=O)c2ccc(Cl)cc2)c1` [HC_039s_IOC] registered an inhibition at 0.0025 µM of 24%, an inhibition at 0.005 µM of 44%, an inhibition at 0.025 µM of 73% and an inhibition at 0.05 µM of 88%. Moreover, the “Hydrolysis rate inhibition, %” value under setting [3] is reported as 98%.

In turn, `Cc1cc(OCCSC(=N)N)cc(OS(=O)(=O)c2ccccc2S(C)(=O)=O)c1` [HC_040s_IOC] gave an inhibition at 0.0025 µM of 4%, an inhibition at 0.005 µM of 19%, an inhibition at 0.025 µM of 66% and an inhibition at 0.05 µM of 75%. Also, the “Hydrolysis rate inhibition, %” value under setting [3] came out at 100%.

For `CN(C)c1cc[n+](CCc2nc3cc(S(=O)(=O)N(C)c4ccccc4)ccc3n2C)cc1.[Cl-]` [HC-021s-IOC], the “Hydrolysis rate inhibition, %” value reads like this: under setting [5], 5%; under setting [10], 8%; under setting [7], 4%; under setting [8], 4%.
